# Measured values: ChEMBL document CHEMBL1201862, “PubChem BioAssay data set” (2004)
# Calls of active or inactive are those of the source.
# What was measured:
# Cytochrome P450 1A2 = biological target: T1, Cytochrome P450 1A2 (Homo sapiens, UniProt P05177);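 note: PubChem cytochrome P450 panel assay, CYP1A2 panel member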
# T1 sequence (P05177 whole entry): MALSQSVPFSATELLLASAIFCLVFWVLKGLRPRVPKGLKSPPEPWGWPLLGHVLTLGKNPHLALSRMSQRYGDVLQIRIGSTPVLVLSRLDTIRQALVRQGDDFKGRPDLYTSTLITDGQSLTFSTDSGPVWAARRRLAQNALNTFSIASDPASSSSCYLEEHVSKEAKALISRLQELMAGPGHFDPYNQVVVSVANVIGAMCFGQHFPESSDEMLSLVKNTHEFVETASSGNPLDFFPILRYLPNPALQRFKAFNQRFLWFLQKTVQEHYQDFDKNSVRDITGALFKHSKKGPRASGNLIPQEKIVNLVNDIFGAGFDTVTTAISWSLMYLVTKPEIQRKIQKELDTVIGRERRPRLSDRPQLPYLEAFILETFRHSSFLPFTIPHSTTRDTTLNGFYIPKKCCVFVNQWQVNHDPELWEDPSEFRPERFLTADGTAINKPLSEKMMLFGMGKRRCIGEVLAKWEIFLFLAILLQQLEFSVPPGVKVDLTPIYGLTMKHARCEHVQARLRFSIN
# Cytochrome P450 2C9 = Cytochrome P450 2C9 (Homo sapiens, UniProt P11712)
# Cytochrome P450 3A4 = Cytochrome P450 3A4 (Homo sapiens, UniProt P08684); details: Potency;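 note: confirmatory qHTS run detecting inhibitors and substrates of CYP3A4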
# BJ [1] = experiment: cytotoxicity toward BJ-TERT fibroblasts, dose response, cell-based, RAS-independent, luminescence (AID 1933); type: functional; details: Homo sapiens
# BJ [2] = experiment: cells; type: functional, cell-based; details: Homo sapiens
# BJ [3] = experiment: cytotoxicity toward BJ-TERT-LT-ST fibroblasts, dose response, cell-based, RAS-independent, luminescence (AID 1935); type: functional; details: Homo sapiens;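 note: BJ fibroblasts immortalized with TERT plus LT and ST oncogenes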
# [4] = cytotoxicity toward DRD oncogenic fibroblasts, dose response, cell-based, non-viral oncogenic, luminescence (AID 1934); type: functional; details: Homo sapiens
# [5] = biological target: Glyceraldehyde-3-phosphate dehydrogenase (Homo sapiens, UniProt P04406)
# Cytochrome P450 2C19 = Cytochrome P450 2C19 (Homo sapiens, UniProt P33261); experiment: Cytochrome panel assay with activity outcomes. Panel member name: p450-cyp2c19 Compounds with AC50 equal or less than 10 uM are considered active; type: functional; details: read-out: AC50
# Leucine aminopeptidase = biological target: T2, Leucine aminopeptidase (Plasmodium falciparum 3D7, UniProt Q8IL11); experiment: P. falciparum M17LAP inhibitors, primary screen, biochemical, fluorogenic H-Leu-NHMec substrate, 1536-well (AID 1619); type: functional
# T2 sequence (Q8IL11 whole entry): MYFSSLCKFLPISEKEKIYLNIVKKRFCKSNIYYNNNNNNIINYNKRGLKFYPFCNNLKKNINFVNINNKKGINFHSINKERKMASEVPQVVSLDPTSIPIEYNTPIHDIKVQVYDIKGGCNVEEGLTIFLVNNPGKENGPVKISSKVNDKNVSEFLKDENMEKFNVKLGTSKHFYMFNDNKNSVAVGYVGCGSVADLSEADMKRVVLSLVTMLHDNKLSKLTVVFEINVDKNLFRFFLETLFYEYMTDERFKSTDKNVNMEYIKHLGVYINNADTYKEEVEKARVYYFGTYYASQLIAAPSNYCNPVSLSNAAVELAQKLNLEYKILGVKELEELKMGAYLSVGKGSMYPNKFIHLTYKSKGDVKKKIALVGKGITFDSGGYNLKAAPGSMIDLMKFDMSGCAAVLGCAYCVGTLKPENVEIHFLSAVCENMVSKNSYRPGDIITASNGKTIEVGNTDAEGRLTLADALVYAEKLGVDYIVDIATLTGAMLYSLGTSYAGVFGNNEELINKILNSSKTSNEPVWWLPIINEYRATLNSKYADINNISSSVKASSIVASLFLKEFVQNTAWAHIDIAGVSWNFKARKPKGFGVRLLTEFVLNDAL
# [6] = Luminescence Cell-Based Dose Confirmation HTS to Identify Activators of 5'UTR Stem-Loop Driven Alpha-Synuclein mRNA Translation in H4 Neuroglioblastoma Cells. [Related pubchem assays: 1829 (Project Summary), 1814 (Primary HTS)]; type: functional
# [7] = Luminescence Cell-Based Dose Response HTS to Identify Activators of Luciferase Translation or Activity in H4 […] Cells. [Related pubchem assays: 1829 (Project Summary), 1814 (Primary HTS)]; type: functional
# H4 = experiment: Luminescence Cell-Based Dose Response HTS to Identify Activators of 5'UTR Stem-Loop Driven Prion Protein mRNA Translation in H4 Neuroglioblastoma Cells. [Related pubchem assays: 1829 (Project Summary), 1814 (Primary HTS)]; type: functional; details: Homo sapiens
# Chain of Cytochrome P450 2C9 (P11712 whole entry): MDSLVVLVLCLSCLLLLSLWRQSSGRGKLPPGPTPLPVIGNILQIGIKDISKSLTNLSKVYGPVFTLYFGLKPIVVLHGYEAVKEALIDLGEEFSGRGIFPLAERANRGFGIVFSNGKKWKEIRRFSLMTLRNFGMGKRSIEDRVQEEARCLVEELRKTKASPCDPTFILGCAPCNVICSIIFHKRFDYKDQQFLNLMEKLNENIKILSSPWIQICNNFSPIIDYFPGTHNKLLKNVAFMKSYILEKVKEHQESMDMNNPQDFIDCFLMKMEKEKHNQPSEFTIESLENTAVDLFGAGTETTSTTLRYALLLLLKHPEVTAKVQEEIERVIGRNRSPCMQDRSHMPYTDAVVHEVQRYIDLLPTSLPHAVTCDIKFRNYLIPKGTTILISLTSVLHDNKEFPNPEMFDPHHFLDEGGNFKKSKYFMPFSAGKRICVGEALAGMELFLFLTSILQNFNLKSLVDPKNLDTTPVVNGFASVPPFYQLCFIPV
# Chain of Cytochrome P450 3A4 (P08684 whole entry): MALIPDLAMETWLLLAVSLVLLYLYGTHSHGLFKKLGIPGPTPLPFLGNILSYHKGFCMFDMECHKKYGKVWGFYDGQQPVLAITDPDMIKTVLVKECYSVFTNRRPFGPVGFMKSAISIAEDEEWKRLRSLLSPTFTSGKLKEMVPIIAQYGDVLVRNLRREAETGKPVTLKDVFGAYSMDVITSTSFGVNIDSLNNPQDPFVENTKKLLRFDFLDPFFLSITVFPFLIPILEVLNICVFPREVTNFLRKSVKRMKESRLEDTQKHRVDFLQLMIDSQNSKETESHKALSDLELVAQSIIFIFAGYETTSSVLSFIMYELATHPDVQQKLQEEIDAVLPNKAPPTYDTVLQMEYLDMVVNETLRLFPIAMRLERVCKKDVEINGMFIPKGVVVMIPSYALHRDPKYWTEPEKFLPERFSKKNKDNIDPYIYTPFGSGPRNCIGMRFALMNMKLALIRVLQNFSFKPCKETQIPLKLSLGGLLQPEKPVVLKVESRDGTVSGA
# Chain of Cytochrome P450 2C19 (P33261 whole entry): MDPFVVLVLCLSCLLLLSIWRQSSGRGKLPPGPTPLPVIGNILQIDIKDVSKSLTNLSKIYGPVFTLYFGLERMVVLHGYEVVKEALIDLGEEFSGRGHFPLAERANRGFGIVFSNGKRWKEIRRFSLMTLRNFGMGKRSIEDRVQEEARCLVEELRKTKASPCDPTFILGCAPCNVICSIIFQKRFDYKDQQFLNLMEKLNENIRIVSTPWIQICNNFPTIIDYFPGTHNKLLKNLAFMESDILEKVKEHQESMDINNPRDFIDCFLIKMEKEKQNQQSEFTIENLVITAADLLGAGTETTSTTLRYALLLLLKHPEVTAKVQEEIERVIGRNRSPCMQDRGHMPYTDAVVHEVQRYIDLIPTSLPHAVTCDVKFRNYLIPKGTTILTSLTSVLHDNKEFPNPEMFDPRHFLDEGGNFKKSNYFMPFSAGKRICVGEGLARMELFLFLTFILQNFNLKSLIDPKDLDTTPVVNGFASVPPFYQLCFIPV
# Chain of Glyceraldehyde-3-phosphate dehydrogenase (P04406 whole entry): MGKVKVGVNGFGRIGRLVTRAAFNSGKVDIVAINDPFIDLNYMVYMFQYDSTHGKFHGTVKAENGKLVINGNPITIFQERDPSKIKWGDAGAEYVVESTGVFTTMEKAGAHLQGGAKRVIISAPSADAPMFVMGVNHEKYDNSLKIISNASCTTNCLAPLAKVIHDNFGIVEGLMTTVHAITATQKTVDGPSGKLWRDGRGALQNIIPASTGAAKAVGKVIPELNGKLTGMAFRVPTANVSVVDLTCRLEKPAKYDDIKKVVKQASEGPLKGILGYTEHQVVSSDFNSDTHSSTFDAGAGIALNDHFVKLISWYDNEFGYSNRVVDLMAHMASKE
smiles,measurement,setting,value
CCn1c(SCC(=O)c2ccc(OC)cc2)nnc1C1CC1,AC50,Cytochrome P450 1A2,17.8 µM (inconclusive)
same,AC50,Cytochrome P450 2C9,inconclusive
CC1(C)C(O)CC(=O)[C@]2(C)C1CC(=O)[C@]1(C)C2CC[C@@]2(C)C(c3ccoc3)OC(=O)C3O[C@@]321 (stereo partly specified),AC50,Cytochrome P450 3A4,10 µM (inconclusive)
N#CCCn1c(=O)c(-c2ccc(Cl)cc2)nc2cnc(Oc3cccc(Cl)c3)nc21,AC50,Cytochrome P450 2C9,inconclusive
Cc1ccc(Nc2nc(-c3cccnc3)nc3ccccc23)cc1,EC50,BJ [1],28.5 µM (active)
same,EC50,BJ [2],20.3 µM (active)
same,EC50,BJ [3],> 150 µM (inconclusive)
same,EC50,[4],15.8 µM (active)
CCCn1c(C)nc2c(NCCN3CCOCC3)nc(C)nc21,AC50,Cytochrome P450 3A4,20 µM (inconclusive)
CN1CCN(C2=C(Cl)C(=O)N(c3cccc(C(F)(F)F)c3)C2=O)CC1,IC50,[5],> 50 µM (inconclusive)
Cc1nc(NC(=O)c2ccccc2)sc1-c1csc(Nc2ccc(F)cc2)n1,AC50,Cytochrome P450 2C19,0.355 µM (inconclusive)
same,AC50,Cytochrome P450 1A2,4.47 µM (inconclusive)
same,AC50,Cytochrome P450 2C9,inconclusive
CC1(C)OC2CC3C4CC(F)C5=CC(=O)C=CC5(C)C4C(O)CC3(C)[C@]2(C(=O)CO)O1 (stereo partly specified),AC50,Cytochrome P450 3A4,39.8 µM (inconclusive)
CCC(=O)OC1CCC2C3CCc4cc(O)ccc4C3CC[C@]12C (stereo partly specified),AC50,Cytochrome P450 3A4,39.8 µM (inconclusive)
CCNc1ncc2nc(-c3ccc(OC)cc3)c(=O)n(Cc3ccc(F)cc3)c2n1,AC50,Cytochrome P450 2C9,inconclusive
COc1cccc(Cn2c(=O)c(-c3cc(F)cc(F)c3)nc3cnc(N4CCOCC4)nc32)c1,AC50,Cytochrome P450 2C9,inconclusive
CCSc1nnc(NC(=O)C2(C)Cc3ccccc3C(=O)O2)s1 (stereo unspecified),IC50,Leucine aminopeptidase,33.6 µM (active)
COC(=O)/C(=C1\OC(=O)C(c2ccccc2)C1=O)c1ccccc1 (stereo unspecified),AC50,Cytochrome P450 3A4,39.8 µM (inconclusive)
CCCCOc1ccc(C2CCC(C(C)=O)C(C)C2)cc1 (stereo unspecified),EC50,[6],0.284 µM (active)
same,EC50,[7],26.8 µM (active)
same,EC50,H4,41.5 µM (active)
CCOC(=O)c1ccc(NC(=O)CN2C(=O)CSCC2=O)cc1,IC50,Leucine aminopeptidase,41.8 µM (active)
Cn1c(-c2ccc3ccccc3n2)[n+](C)c2ccccc21,EC50,[6],> 120 µM (not active)
same,EC50,[7],12.7 µM (active)
same,EC50,H4,40 µM (active)
